According to patent publication US11872270B2, “A*03 restricted peptides for use in immunotherapy against cancers and related methods” (Immatics Biotechnologies GmbH, priority 2018, dated 2024):

Key:
CD8+ T cells = assay: In vitro T-cell priming assay (immunogenicity) with aAPCs loaded with peptide/MHC complexes and anti-CD28 antibody; assay type: cell-based, human; details: in vitro immunogenicity, HLA-A*03 restricted peptides, Table 10b
HLA-A*03:01 = HLA-A*03:01 (Homo sapiens, UniProt P04439); assay: MHC binding assay (UV-ligand exchange, β2m ELISA); details: binding to HLA-A*03:01, UV-ligand exchange, β2m ELISA
In short: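 Peptide-MHC complexes formed by UV-ligand exchange of a UV-cleavable peptide for the test peptide; exchange yield quantified by β2m ELISA. Streptavidin-coated capture, samples diluted 100-fold, 1 h at 37 °C, HRP anti-β2m detection, TMB read at 450 nm against HLA-A*02:01/MLA-001 monomer standards (15–500 ng/ml).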

Row | Substance | Peptide exchange (MHC class I binding score, peptide exchange yield) (HLA-A*03:01) | Wells positive [%] (CD8+ T cells)
1 | 81 (HLFLPFSYK; listed as Homo sapiens) [compound 81] | ++++ (>75% = ++++) | “+” (1-19% = +)
2 | 214 (KLFTSVFGVGLK; listed as Homo sapiens) [compound 214] | ++++ (>75% = ++++) | “+” (1-19% = +)

The next lines start with results.

Row | Peptide exchange (MHC class I binding score, peptide exchange yield) (HLA-A*03:01) | Substance | Wells positive [%] (CD8+ T cells)
3 | ++++ (>75% = ++++) | 69 (GLSTILLYH; listed as Homo sapiens) [compound 69] | “+” (1-19% = +)
4 | +++ (>50 = +++) | 29 (KVLSILSRLK; listed as Homo sapiens) [compound 29] | “+” (1-19% = +)
5 | +++ (>50 = +++) | 71 (VLYELGIIGNNK; listed as Homo sapiens) [compound 71] | “+” (1-19% = +)
